Measurements published in patent publication US20200246277A1, “Composition For Alleviating, Preventing Or Treating Premenstrual Syndrome, Containing, As Active Ingredient, Pinitol, D-Chiro-Inositol Or Analog Compound Thereof” (DY NATURAL CO., LTD., priority 2015, published 2020).
Entries after “also recorded” stand apart in the source; their conditions may differ.

System: premenstrual syndrome
Test: Blind test with questionnaire survey: alleviating effect on premenstrual syndrome, once a day for eight weeks
Assay type: in vivo, women
Conditions: for alleviation, percentage / alleviation, the number of people / complete alleviation, percentage / complete alleviation, the number of people / no change, percentage / no change, the number of people / significant alleviation, percentage / significant alleviation, the number of people: eight weeks
Excerpt: 1. Evaluation of Administration of Pinitol or D-Chiro-Inositol to Female Subject Pinitol and D-chiro-inositol were purchased from Biosearch Life (Camino de Purchil, 66. 18004 Granada, Spain). Selected as experiment subjects were 80 normal women of reproductive age, that is, 80 women at the age of 25-40 who had neither skipped three or more cycles of menstruation, nor been administered with a contraceptive pill, and nor received a psychiatric treatment. Of them, 40 persons were classified into four groups of 10 which were then administered respectively with a placebo free of pinitol and having no pharmaceutical effects and with pinitol at three different doses. Likewise, the remaining 40 persons were equally divided into one placebo group and three experimental groups to which D-chiro-inositol was administered at three different doses, respectively. A blind test was conducted in which the placebo and pinitol or D-chiro-inositol was administered once a day for eight weeks. Pinitol or D-chiro-inositol was administered at daily doses of 600 mg, 1,200 mg, and 2,400 mg for eight weeks. A survey was made of the experimental subjects before and after the clinical test of placebo and pinitol or D-chiro-inositol to evaluate the alleviating effect of pinitol or D-chiro-inositol on premenstrual syndrome. 2. Survey In the present disclosure, the questionnaire that experimental subjects had completed with respect to the severity of premenstrual syndrome were analyzed. The experimental subjects evaluated the placebo, pinitol, or D-chiro-inositol for a pharmacological effect on premenstrual syndrome on the basis of four grades: complete alleviation, significant alleviation, somewhat alleviation, and no change for dysmenorrhea, a period of dysmenorrhea, and coldness of hands and feet. [table]

[1] = administration group of 1,200 mg or 2,400 mg
[2] = coldness of hands and feet, 600 mg a day
[3] = coldness of hands and feet, 1,200 mg a day
[4] = coldness of hands and feet, 2,400 mg a day
[5] = period of dysmenorrhea, 600 mg a day
[6] = period of dysmenorrhea, 1,200 mg a day
[7] = period of dysmenorrhea, 2,400 mg a day

CO[C@H]1[C@H](O)[C@@H](O)[C@@H](O)[C@H](O)[C@@H]1O [Pinitol, pinitol]
share of group with somewhat or significant alleviation of the main symptoms of premenstrual syndrome (administration group of 600 mg, across main symptoms): 50-60%
share of group with complete alleviation of the main symptoms (administration group of 1,200 mg): ≥ 50%
share of group that answered alleviation in the main symptoms [1]: 80-90%
share of group that did not feel changes in the main symptoms of premenstrual syndrome [1]: 10%
share of group with complete alleviation of the main symptoms (administration group of 2,400 mg): 70-80%
alleviation, percentage [2]: 40.0%
alleviation, the number of people [2]: 4 person
complete alleviation, percentage [2]: 0.0%
complete alleviation, the number of people [2]: 0 person
no change, percentage [2]: 50.0%
no change, the number of people [2]: 5 person
significant alleviation, percentage [2]: 10.0%
significant alleviation, the number of people [2]: 1 person
alleviation, percentage [3]: 10.0%
alleviation, the number of people [3]: 1 person
complete alleviation, percentage [3]: 40.0%
complete alleviation, the number of people [3]: 4 person
no change, percentage [3]: 20.0%
no change, the number of people [3]: 2 person
significant alleviation, percentage [3]: 30.0%
significant alleviation, the number of people [3]: 3 person
alleviation, percentage [4]: 10.0%
alleviation, the number of people [4]: 1 person
complete alleviation, percentage [4]: 70.0%
complete alleviation, the number of people [4]: 7 person
no change, percentage [4]: 10.0%
no change, the number of people [4]: 1 person
significant alleviation, percentage [4]: 10.0%
significant alleviation, the number of people [4]: 1 person
effect on the main symptoms of premenstrual syndrome (dysmenorrhea, period of dysmenorrhea, coldness of hands and feet), in words (daily dose of 600 mg, 1,200 mg, and 2,400 mg): Significant reductions; also recorded: significantly alleviating
alleviation, percentage (dysmenorrhea, 600 mg a day): 30.0%
alleviation, the number of people (dysmenorrhea, 600 mg a day): 3 person
complete alleviation, percentage (dysmenorrhea, 600 mg a day): 0.0%
complete alleviation, the number of people (dysmenorrhea, 600 mg a day): 0 person
no change, percentage (dysmenorrhea, 600 mg a day): 40.0%
no change, the number of people (dysmenorrhea, 600 mg a day): 4 person
significant alleviation, percentage (dysmenorrhea, 600 mg a day): 30.0%
significant alleviation, the number of people (dysmenorrhea, 600 mg a day): 3 person
alleviation, percentage (dysmenorrhea, 1,200 mg a day): 10.0%
alleviation, the number of people (dysmenorrhea, 1,200 mg a day): 1 person
complete alleviation, percentage (dysmenorrhea, 1,200 mg a day): 60.0%
complete alleviation, the number of people (dysmenorrhea, 1,200 mg a day): 6 person
no change, percentage (dysmenorrhea, 1,200 mg a day): 10.0%
no change, the number of people (dysmenorrhea, 1,200 mg a day): 1 person
significant alleviation, percentage (dysmenorrhea, 1,200 mg a day): 20.0%
significant alleviation, the number of people (dysmenorrhea, 1,200 mg a day): 2 person
alleviation, percentage (dysmenorrhea, 2,400 mg a day): 0.0%
alleviation, the number of people (dysmenorrhea, 2,400 mg a day): 0 person
complete alleviation, percentage (dysmenorrhea, 2,400 mg a day): 80.0%
complete alleviation, the number of people (dysmenorrhea, 2,400 mg a day): 8 person
no change, percentage (dysmenorrhea, 2,400 mg a day): 0.0%
no change, the number of people (dysmenorrhea, 2,400 mg a day): 0 person
significant alleviation, percentage (dysmenorrhea, 2,400 mg a day): 20.0%
significant alleviation, the number of people (dysmenorrhea, 2,400 mg a day): 2 person
alleviation, percentage [5]: 20.0%
alleviation, the number of people [5]: 2 person
complete alleviation, percentage [5]: 0.0%
complete alleviation, the number of people [5]: 0 person
no change, percentage [5]: 50.0%
no change, the number of people [5]: 5 person
significant alleviation, percentage [5]: 30.0%
significant alleviation, the number of people [5]: 3 person
alleviation, percentage [6]: 20.0%
alleviation, the number of people [6]: 2 person
complete alleviation, percentage [6]: 50.0%
complete alleviation, the number of people [6]: 5 person
no change, percentage [6]: 10.0%
no change, the number of people [6]: 1 person
significant alleviation, percentage [6]: 20.0%
significant alleviation, the number of people [6]: 2 person
alleviation, percentage [7]: 0.0%
alleviation, the number of people [7]: 0 person
complete alleviation, percentage [7]: 80.0%
complete alleviation, the number of people [7]: 8 person
no change, percentage [7]: 0.0%
no change, the number of people [7]: 0 person
significant alleviation, percentage [7]: 20.0%
significant alleviation, the number of people [7]: 2 person
